The source of these data is PMC12529303, “A phase I study of AZD8186 in combination with docetaxel in patients with PTEN-mutated or PIK3CB-mutated advanced solid tumors” (ESMO Open, 2025).

Data set [1] has as its system xenograft mouse models. On the set-up: method as in PMID 32215185, PMID 25398829. The note with it: cited from earlier work.
Data set [2] can be described thus: AZD8186 plasma pharmacokinetics (UPLC-MS/MS, noncompartmental). The note with it: for Cmin,ss / Cmax / Tmax / AUC(0-t): plasma; for Cmax / Tmax / AUC(0-t): human, oral, C2D1; for AUC(0-t): read-out: AUC0-6h. Format: in vivo, human. As for the experimental part: (§1) Plasma samples were collected at predefined time points based upon the dosing schedules for docetaxel and AZD8186. Cycle 1, day 1 (C1D1) pretreatment baseline measurements were collected for both drugs. For docetaxel, samples were collected as follows: C2D1, pretreatment, 30 min and 55 min after the start of the docetaxel infusion, and 2 h and 5 h after the end of the docetaxel infusion; C2D2, ∼24 h after the start of the docetaxel infusion. For AZD8186, samples were collected as follows: C2D1, pretreatment and 1 h, 3 h, and 6 h after dosing; C2D2, ∼24 h after dose and before the next AZD8186 dose. Starting from cycle 3, a day 1 pretreatment sample was collected at each scheduled visit.
Plasma concentrations of docetaxel were quantified using a validated liquid chromatography and tandem mass spectrometry.[36] The lower limit of quantitation for docetaxel was 0.5 ng/ml. AZD8186 plasma concentration was quantified using a validated ultraperformance liquid chromatography and tandem mass spectrometry method with a 5-2000 ng/ml dynamic range. Assays were carried out at the Sidney Kimmel Comprehensive Cancer Center Analytical Pharmacology Core Laboratory at Johns Hopkins University.
Statistical analysis for pharmacokinetic (PK) studies was carried out using Graph Pad Prism software version 9.4.1 (GraphPad Software, Inc., Boston, MA). PK parameters were evaluated statistically by Kruskal–Wallis test. Significance was determined at a level of P < 0.05. Between-group comparisons were conducted using the Wilcoxon signed rank test.

The subject of data set [3] is PTEN-null and PI3Kβ-driven preclinical models of breast and prostate cancer. On the set-up: method as in PMID 32215185, PMID 25398829. The note with it: in vitro; cited from earlier work.
Data set [4] concerns advanced solid tumors. Set-up: method as in PMID 35247924. As to conditions: 60 mg b.i.d. and 120 mg b.i.d.; cited from earlier work.
For data set [5], the system named is castration-resistant prostate cancer with PTEN loss. Set-up: method as in PMID 28645941. The note with it: cited from earlier work.
A short description of data set [6]: clinical. As to conditions: human, in vivo. The procedure:
as §1
Plasma concentrations of docetaxel were quantified using a validated liquid chromatography and tandem mass spectrometry.[36] The lower limit of quantitation for docetaxel was 0.5 ng/ml. AZD8186 plasma concentration was quantified using a validated ultraperformance liquid chromatography and tandem mass spectrometry method with a 5-2000 ng/ml dynamic range. […]
Statistical analysis for pharmacokinetic (PK) studies was carried out using Graph Pad Prism software version 9.4.1 (GraphPad Software, Inc., Boston, MA). PK parameters were evaluated statistically by Kruskal–Wallis test. Significance was determined at a level of P < 0.05. […]

The mark [7] stands for this setting: TAC-1B AZD8186 reduced: docetaxel 45 mg/m^2, AZD8186 30 mg, n=1.
Where [8] appears, read: TAC1+GF: docetaxel 75 mg/m^2, AZD8186 60 mg, n=3.
The mark [9] stands for this setting: TAC-1: docetaxel 75 mg/m^2, AZD8186 60 mg, n=1.
Setting [10] is: TAC-1B: docetaxel 60 mg/m^2, AZD8186 60 mg, n=1.
[11] abbreviates: TAC-2: docetaxel 75 mg/m^2, AZD8186 120 mg, n=7.

The term Cmax denotes the peak of the concentration-time curve. For orientation: Tmax means the time at which the peak concentration occurs.

Read-outs that look alike come from different tables or passages of the source.

Turning to `C[C@@H](Nc1cc(F)cc(F)c1)c1cc(C(=O)N(C)C)cc2c(=O)cc(N3CCOCC3)oc12` [AZD8186], the “single-agent activity in vivo” value in data set [1] is given as “limited single-agent activity”. In addition, the “steady-state trough concentrations across dosing cohorts” value in data set [2] (Kruskal-Wallis) was “not significantly different”. In addition, the “Cmin,ss” value in data set [2] (TAC1+GF: docetaxel 75 mg/m^2, AZD8186 60 mg, n=1) is 176.0 (1) ng/mL; in data set [2] (TAC-1: docetaxel 75 mg/m^2, AZD8186 60 mg, mean ± SD, n=3) it was 149.8 ± 77.2 (3) ng/mL; in data set [2] (TAC-1 AZD8186 reduced: docetaxel 60 mg/m^2, AZD8186 30 mg, n=1) it was 66.0 (1) ng/mL; in data set [2] (setting [7]) it was 130.0 (1) ng/mL; in data set [2] (TAC-1B: docetaxel 60 mg/m^2, AZD8186 60 mg, mean ± SD, n=3), 83.5 ± 55.1 (3) ng/mL; in data set [2] (TAC-2: docetaxel 75 mg/m^2, AZD8186 120 mg, mean ± SD, n=6), 76.8 ± 49.2 (6) ng/mL. Besides, the Cmax came out at 166 ng/mL in data set [2] (TAC1+GF: docetaxel 75 mg/m^2, AZD8186 60 mg); 464 ng/mL in data set [2] (TAC-1: docetaxel 75 mg/m^2, AZD8186 60 mg); 253 ng/mL in data set [2] (setting [7]); 285 ng/mL in data set [2] (setting [10]); 532 ng/mL in data set [2] (TAC-2: docetaxel 75 mg/m^2, AZD8186 120 mg). Further, the Tmax was 2.76 h in data set [2] (setting [8]); 3.87 h in data set [2] (setting [9]); 8.43 h in data set [2] (setting [7]); 4.75 h in data set [2] (setting [10]); 4.43 h in data set [2] (setting [11]). Besides, the AUC(0-t) in data set [2] (setting [8]) is 224 ng·h/mL; in data set [2] (setting [9]), 1110 ng·h/mL; in data set [2] (setting [7]), 789 ng·h/mL; in data set [2] (setting [10]), 808 ng·h/mL; in data set [2] (setting [11]) it was 1800 ng·h/mL. Also, in data set [3], the “PI3K signaling and viability” value is “inhibited PI3K signaling and viability”. In data set [4], the “tolerability and target inhibition in plasma” value is listed as “tolerable with dose-dependent target inhibition in plasma”.
With `Cc1c(Cn2c(C)nc3c(C(=O)O)cc(N4CCOCC4)cc32)cccc1C(F)(F)F` [GSK2636771], in data set [5], the responses result is “only anecdotal responses”.
With `CC(=O)O[C@@]12CO[C@@H]1C[C@H](O)[C@@]1(C)C(=O)[C@H](O)C3=C(C)[C@@H](OC(=O)[C@H](O)[C@@H](NC(=O)OC(C)(C)C)c4ccccc4)C[C@@](O)([C@@H](OC(=O)c4ccccc4)[C@H]21)C3(C)C` [docetaxel], the Tmax in data set [6] worked out at 0.92 h.
